Laboratory results taken from ChEMBL document CHEMBL1140452, “5'-halogenated analogs of oxymorphindole” (Bioorg Med Chem Lett, 2007).
Active and inactive are the calls of the source. The rule behind the calls is not given here.

Key:
[1] = target: Kappa-type opioid receptor (Homo sapiens, UniProt P41145); experiment: Displacement of [3H]U-69593 from cloned kappa opioid receptor
[2] = test system: Mus musculus; experiment: Antinociceptive effect in mouse at 30 mg/kg by antiwrithing assay; type: functional, organism-based; set-up: dose 30 mg/kg
[3] = test system: Mus musculus; experiment: Antinociceptive effect in mouse at 30 mg/kg by hot plate assay; type: functional, organism-based; set-up: dose 30 mg/kg
[4] = target: T1, Delta-type opioid receptor (Homo sapiens, UniProt P41143); experiment: Displacement of [3H]p-Cl-DPDPE from delta opioid receptor
[5] = target: T2, Mu-type opioid receptor (Homo sapiens, UniProt P35372); experiment: Displacement of [3H]DAMGO from mu opioid receptor
[6] = target: T2, Mu-type opioid receptor; experiment: Activity at mu opioid receptor assessed as stimulation of [35S]GTP-gamma-S binding; type: functional
[7] = test system: Mus musculus; experiment: Antinociceptive effect in mouse at 30 mg/kg by […]; type: functional, organism-based; set-up: dose 30 mg/kg
[8] = target: T1, Delta-type opioid receptor; experiment: Activity at delta opioid receptor assessed as stimulation of [35S]GTP-gamma-S binding
[9] = test system: Mus musculus; experiment: Antinociceptive effect in mouse at 30 mg/kg by tail flick assay; type: functional, organism-based; set-up: dose 30 mg/kg
[10] = species on record: Homo sapiens; experiment: Selectivity for delta opioid receptor over mu opioid receptor

Sequence of Kappa-type opioid receptor (P41145 whole entry): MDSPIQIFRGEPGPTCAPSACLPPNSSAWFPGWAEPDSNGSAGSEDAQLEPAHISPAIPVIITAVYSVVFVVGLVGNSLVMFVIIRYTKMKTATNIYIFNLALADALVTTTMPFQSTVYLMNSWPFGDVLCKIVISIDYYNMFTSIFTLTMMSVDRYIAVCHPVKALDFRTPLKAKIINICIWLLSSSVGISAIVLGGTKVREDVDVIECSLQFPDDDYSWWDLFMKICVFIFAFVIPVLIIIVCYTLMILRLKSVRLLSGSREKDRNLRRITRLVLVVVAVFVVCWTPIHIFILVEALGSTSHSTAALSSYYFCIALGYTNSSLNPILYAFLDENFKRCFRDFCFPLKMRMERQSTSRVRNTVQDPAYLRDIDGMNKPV
T1 sequence (P41143 whole entry): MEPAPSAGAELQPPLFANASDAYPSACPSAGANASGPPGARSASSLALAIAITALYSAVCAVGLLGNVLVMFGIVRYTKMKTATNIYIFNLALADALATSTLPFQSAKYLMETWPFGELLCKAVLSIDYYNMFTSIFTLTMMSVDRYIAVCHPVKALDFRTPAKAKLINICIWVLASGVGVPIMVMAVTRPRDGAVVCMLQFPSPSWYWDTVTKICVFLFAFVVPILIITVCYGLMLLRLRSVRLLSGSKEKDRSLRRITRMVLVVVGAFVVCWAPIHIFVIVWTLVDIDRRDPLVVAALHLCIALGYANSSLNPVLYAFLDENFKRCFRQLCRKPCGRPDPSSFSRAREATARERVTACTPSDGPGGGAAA
T2 sequence (P35372 whole entry): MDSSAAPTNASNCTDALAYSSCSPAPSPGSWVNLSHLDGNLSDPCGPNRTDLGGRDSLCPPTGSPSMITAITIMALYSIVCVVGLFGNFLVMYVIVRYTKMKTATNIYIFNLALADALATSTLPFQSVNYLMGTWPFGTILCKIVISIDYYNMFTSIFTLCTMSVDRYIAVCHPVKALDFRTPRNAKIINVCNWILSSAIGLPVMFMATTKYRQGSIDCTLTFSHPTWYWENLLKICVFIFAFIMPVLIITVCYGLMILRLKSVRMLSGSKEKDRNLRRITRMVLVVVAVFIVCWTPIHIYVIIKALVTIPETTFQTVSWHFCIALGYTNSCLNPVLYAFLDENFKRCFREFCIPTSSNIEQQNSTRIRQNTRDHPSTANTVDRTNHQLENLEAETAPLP

| Compound | Ki [1] [nM] | Activity [2] | Activity [3] | Ki [4] [nM] | Ki [5] [nM] | Activity [6] [%] | EC50 [6] [nM] | Activity [7] | EC50 [8] [nM] | Activity [9] | Ratio Ki [10] |
| --- | --- | --- | --- | --- | --- | --- | --- | --- | --- | --- | --- |
| CN1CC[C@]23c4c5ccc(O)c4O[C@H]2c2[nH]c4ccc(F)cc4c2C[C@@]3(O)[C@H]1C5 | 310 | inactive | inactive | 2.3 | 21 | 34 | 1080 | inactive | 16 | inactive | 9 |
| CN1CC[C@]23c4c5ccc(O)c4O[C@H]2c2[nH]c4ccccc4c2C[C@@]3(O)[C@H]1C5 [OXYMORPHINDOLE] | – | inactive | inactive | 0.9 | 105 | – | – | inactive | – | inactive | 115 |
| CN1CC[C@]23c4c5ccc(O)c4O[C@H]2c2[nH]c4ccc(Br)cc4c2C[C@@]3(O)[C@H]1C5 | 250 | inactive | inactive | 8.6 | 71 | – | – | inactive | – | inactive | 8 |
| CN1CC[C@]23c4c5ccc(O)c4O[C@H]2c2[nH]c4ccc(Cl)cc4c2C[C@@]3(O)[C@H]1C5 | 360 | inactive | inactive | 5.1 | 47 | – | – | inactive | – | inactive | 9 |
| CN1CC[C@]23c4c5ccc(O)c4O[C@H]2c2[nH]c4ccc(I)cc4c2C[C@@]3(O)[C@H]1C5 | 160 | inactive | inactive | 3.8 | 66 | – | – | inactive | – | inactive | 17 |
